# Measurements reported in patent US20080261942A1, “COMBINATIONS OF BILE ACID SEQUESTRANT(S) AND STEROL ABSORPTION INHIBITOR(S) AND TREATMENTS FOR VASCULAR INDICATIONS” (SCHERING CORPORATION, priority 2001, published 2008).
# System: free cholesterol absorption
# Assay: short term hamster model tracking a bolus of gavaged radiolabeled cholesterol
# Format: in vivo, Male Golden Syrian hamsters
# Description: To follow the movement of lipids across the intestinal wall leading to its subsequent appearance in the lymph, blood and liver, a short term hamster model which tracked a bolus of gavaged radiolabeled lipid was used. Free cholesterol absorption was examined in this hamster model to explore whether the cholesterol absorption inhibitor compound of Formula (XII): […]
# Male Golden Syrian hamsters were fed a diet containing 0.5% cholesterol overnight and divided into groups of 5 animals. […] Two hours later, blood and liver samples were collected from each hamster. The blood was centrifuged for 20 minutes at 3000 rpm and the plasma was removed. Aliquots of the plasma and liver were analyzed for [^14C] radioactivity. Radioactive content was determined using a Beckman LSC (liquid […] counter).
# [1] = hamsters fed 0.5% cholesterol diet, gavage 1 h before [14C]-cholesterol, samples two hours later, Compound XII 3 mg/kg, cholestyramine 1 g/kg
# [2] = hamsters fed 0.5% cholesterol diet, samples two hours after [14C]-cholesterol, Compound XII 3 mg/kg, cholestyramine 1 g/kg
# [3] = specified dosage (Compound XII 3 mg/kg, cholestyramine 1 g/kg)
smiles,measurement,setting,value
COc1ccc([C@@H]2[C@@H](CCCc3ccccc3)C(=O)N2c2ccc(OC)cc2)cc1 [Compound XII],Liver [14C]-cholesterol (DPM/gram of liver),[1],3755 ± 923 DPM/gram of liver
same,Plasma [14C]-cholesterol (Decays Per Minute (DPM)/milliter of plasma),[1],1438 ± 455 DPM/milliter of plasma
same,"Liver [14C]-cholesterol, change versus Control (in brackets)",[2],−53%
same,"Plasma [14C]-cholesterol, change versus Control (in brackets)",[2],−71%
same,reduction of liver (hepatic) [14C]-cholesterol levels,[3],53%
same,reduction of plasma [14C]-cholesterol levels,[3],71%
